# PMC10360056, “Chemical Evolution of Amphiphilic Xenopeptides for Potentiated Cas9 Ribonucleoprotein Delivery” (Journal of the American Chemical Society, 2023)
# Tests used:
# [1] = tested on: HeLa WT cells; test: Endocytosis pathway study with inhibitors; type: cell-based; settings: 1 mM amiloride 2 h, 75 nM RNP, 4 h, flow cytometry
# Protocol: sgRNA amount in naked Cas9/sgRNA ribonucleoproteins (Cas9 RNPs) or Cas9 RNP nanocarriers were determined using a Quant-iTTM RiboGreen® RNA assay kit (Invitrogen, CA, USA). 50 μL of naked Cas9 RNPs or Cas9 RNP nanocarriers con-taining 250 ng Cas9 protein and 50 ng sgRNA were mixed with 50 μL of TE buffer and were added to the 96-well plate. The plate was incubated for 10 min. Afterwards, 100 μL of Ribogreen solution (diluted 1:100 in TE buffer) was added to each well.
# The plate was incubated for another 5 min. Ribogreen fluorescence intensity was detected using a microplate reader (Spectra-fluor Plus, Tecan, Männedorf, Switzerland) with excitation and emission wavelength of 485 and 528 nm, respectively. […]
# Cells were harvested and resuspended in 600 μL of FACS buffer (PBS buffer containing 10 % FBS). […] The DAPI signal and BFP fluorescence were detected with 405 nm excitation and 450 nm emission. The eGFP and ATTO488 fluorescence was assayed with 488 nm excitation and 530 nm emission. The ATTO647N fluorescence was assayed with 640 nm excitation and 670 nm emission. Ten thousand of isolated live cells were counted and evaluated. The data were analyzed using FlowJo 7.6.5 by FlowJo, LLC (Becton, Dickinson and Company, USA).
# Cell viability was determined using an MTT assay. […]
# Cellular uptake of Cas9 RNP nanocarriers was evaluated by flow cytometry and confocal laser scanning microscopy (CLSM). […]
# [2] = tested on: HeLa eGFP/tub cells; test: eGFP knockout study by Cas9 RNP nanocarriers, flow cytometry; type: cell-based; settings: 48 h treatment
# Protocol: (§1) HeLa WT, HeLa eGFP/tub, HeLa GFPd2 (destabilized eGFP), CT26 eGFP/luc and N2a eGFP/luc cells were grown in DMEM medium supplemented with 10 % FBS, 100 U/mL penicillin, and 100 μg/mL streptomycin. The cells were cultured in ventilated flasks in the cell incubator at 37 °C and 5 % CO2 in a humidified atmosphere. The cells were passaged at a confluency of […]
# (§2) Cells were harvested and resuspended in 600 μL of FACS buffer (PBS buffer containing 10 % FBS). The samples were ana-lyzed by flow cytometry on a CytoFLEX S flow cytometer (Beckman Coulter, CA, USA). For eGFP knockout and cellular uptake experiments, 0.6 μL of 1 μg/μL DAPI was added to each sample for differentiating live and dead cells before the measurement. The DAPI signal and BFP fluorescence were detected with 405 nm excitation and 450 nm emission. The eGFP and ATTO488 fluorescence was assayed with 488 nm excitation and 530 nm emission. The ATTO647N fluorescence was assayed with 640 nm excitation and 670 nm emission. Ten thousand of isolated live cells were counted and evaluated. The data were analyzed using FlowJo 7.6.5 by FlowJo, LLC (Becton, Dickinson and Company, USA). […]
# (§3) Endosomal escape of Cas9 RNP nanocarriers […]
# (§4) Next, the […]
# (§5) cells were washed twice with PBS and then fixed with 4 % PFA at RT for 40 min. Afterwards, the cells were washed and incubated with 2 µg/mL DAPI (for staining cell nuclei) for 30 min. Then, the staining solution was removed and 300 μL fresh PBS were added. The slides w ere stored at 4 °C in the dark until the measurement. […]
# (§6) Then, the image was conv erted into 8-bit type. The mRuby3/gal8 spots were further determined by Threshold tool, and the number of the spots in the cell cytosol per cell were counted by Analyze Particles tool.
# One day prior to the treatments, HeLa eGFP/tub cell s were seeded into 96 -well plates at a density of 5000 cells/well. On the next day, the medium was replaced with 80 μL of fresh medium. 20 μL of Cas9 RNP nanocarriers were added to each well resulting in a series of concentrations of RNP (100, 75, 50, 25, 10, 5, 2.5, 1, 0.5, and 0.1 nM). Lipofectamine CRISPRMAX was tested at the same concentrations of RNP with the preparation procedures as recommended by the manufacturer. The cells were incubated for 48 h. Afterwards, the cells were trypsinized and transfer red to 24-well plates, and incubated for another 72 h. Then, the cells were harvested and prepared for flow cytometry analysis. All experiments were performed in triplicate. eGFP to BFP conversion (HDR) study
# One day prior to the treatments, HeLa GFPd2 cel ls were seeded into 96 -well plates at a density of 5000 cells/well. On the next day, the medium was replaced with 80 μL of fresh medium. 20 μL of Cas9 RNP/ssDNA nanocarriers containing different molar ratios of RNP/ssDNA were added to each well resulting i n a series of concentrations of RNP (100, 75, 50, 25, 10, 5, 2.5, 1, 0.5, and 0.1 nM). Lipofectamine CRISPRMAX was tested at the same concentrations of RNP and ssDNA with the prepara-tion procedures as recommended by the manufacturer. The cells were incubat ed for 48 h. Afterwards, the cells were trypsinized and transferred to 24 -well plates, and incubated for another 72 h. Then, the cells were harvested and prepared for flow cytom-etry analysis. […]
# Half maximal effective concentration (EC50) values were calculated by GraphPad prism 5. […] All other data were analyzed with GraphPad prism 5 and presented as arithmetic mean ± standard deviation (SD) of at least triplicates. […]
# [3] = tested on: N2a eGFP/luc cells; test: eGFP knockout in N2a eGFP/luc cells; type: cell-based, murine; settings: 1 nM RNP, 48 h treatment
# Protocol: as §1, §2, §3
# (§7) Then, the image was conv erted into 8-bit type. The mRuby3/gal8 spots were further determined by Threshold tool, and the number of the spots in the cell cytosol per cell were counted by Analyze Particles tool. […]
# [4] = tested on: HeLa GFPd2 cells; test: eGFP to BFP conversion (HDR) study, Cas9 RNP/ssDNA co-delivery; type: cell-based; settings: for HDR: RNP/ssDNA 1/4, 48 h
# Protocol: as §1, §2, §3, §4, §5, §6
# One day prior to the treatments, HeLa eGFP/tub cell s were seeded into 96 -well plates at a density of 5000 cells/well. On the next day, the medium was replaced with 80 μL of fresh medium. 20 μL of Cas9 RNP nanocarriers were added to each well resulting in a series of concentrations of RNP (100, 75, 50, 25, 10, 5, 2.5, 1, 0.5, and 0.1 nM). […]
# [5] = tested on: CT26 eGFP/luc cells; test: eGFP knockout in CT26 eGFP/luc cells; type: cell-based, murine; settings: 1 nM RNP, 48 h treatment
# Protocol: as §1, §2, §3, §7
SMILES,Cas9 RNP uptake after pretreatment with amiloride (macropinocytosis) [1],"eGFP knockout ([2]; 1 nM RNP, N/P 24)",eGFP knockout [3],"HDR ([4]; HeLa GFPd2, 0.5 nM RNP)","HDR ([4]; HeLa GFPd2, 1 nM RNP)","HDR efficiency ([4]; HeLa GFPd2, 10 nM RNP, RNP/ssDNA ratio 1/8, N/P 12, 48 h)",eGFP knockout [5],eGFP knockout (disruption) ([2]; 0.5 nM (500 pM) RNP),eGFP knockout ([2]; RNP concentrations down to 5 nM)
CCCCC/C=C\C/C=C\CCCCCCCC(=O)NCCCC[C@H](NC(=O)CCCCCCC/C=C\C/C=C\CCCCC)C(=O)NCCCC[C@H](NC(=O)CCC(=O)NCCNCCNCCNCCNC(=O)[C@H](Cc1ccc(O)cc1)NC(=O)[C@H](Cc1ccc(O)cc1)NC(=O)[C@H](Cc1ccc(O)cc1)NC(=O)[C@@H](N)CCCCN=[N+]=[N-])C(=O)NCCNCCNCCNCCNC(=O)CCC(=O)N[C@@H](Cc1ccc(O)cc1)C(=O)N[C@@H](Cc1ccc(O)cc1)C(=O)N[C@@H](Cc1ccc(O)cc1)C(=O)O [Stp1-LinA],blocked,~80%,–,–,–,–,–,–,–
CCCCC/C=C\C/C=C\CCCCCCCC(=O)NCCCC[C@H](NC(=O)CCCCCCC/C=C\C/C=C\CCCCC)C(=O)NCCCC[C@H](NC(=O)CN(CC(=O)NCCNCCNCCNCCNC(=O)[C@H](Cc1ccc(O)cc1)NC(=O)[C@H](Cc1ccc(O)cc1)NC(=O)[C@H](Cc1ccc(O)cc1)NC(=O)[C@@H](N)CCCCN=[N+]=[N-])CC(F)(F)F)C(=O)NCCNCCNCCNCCNC(=O)CN(CC(=O)N[C@@H](Cc1ccc(O)cc1)C(=O)N[C@@H](Cc1ccc(O)cc1)C(=O)N[C@@H](Cc1ccc(O)cc1)C(=O)O)CC(F)(F)F [TFE-IDAtp1-LinA],–,~88%,13.4%,~11%,~23%,~28%,~55%,~61%,up to 99%
